# Assay results from article PMC5762315, “Inhibition of polo-like kinase 4 (PLK4): a new therapeutic option for rhabdoid tumors and pediatric medulloblastoma” (Oncotarget, 2017).
# Several values for one entry are separate records, joined by “and”; a condition that tells them apart may be missing. Equal values may be shown once.
# Assays:
# Assay in all cases: biochemical
# Format in all cases: biochemical
# various kinases [1] = target: T1, various kinases (Homo sapiens, UniProt Q05513); conditions: kinase PRKCZ (PKC zeta); ZLYTE
# T1 sequence (Q05513 1-592): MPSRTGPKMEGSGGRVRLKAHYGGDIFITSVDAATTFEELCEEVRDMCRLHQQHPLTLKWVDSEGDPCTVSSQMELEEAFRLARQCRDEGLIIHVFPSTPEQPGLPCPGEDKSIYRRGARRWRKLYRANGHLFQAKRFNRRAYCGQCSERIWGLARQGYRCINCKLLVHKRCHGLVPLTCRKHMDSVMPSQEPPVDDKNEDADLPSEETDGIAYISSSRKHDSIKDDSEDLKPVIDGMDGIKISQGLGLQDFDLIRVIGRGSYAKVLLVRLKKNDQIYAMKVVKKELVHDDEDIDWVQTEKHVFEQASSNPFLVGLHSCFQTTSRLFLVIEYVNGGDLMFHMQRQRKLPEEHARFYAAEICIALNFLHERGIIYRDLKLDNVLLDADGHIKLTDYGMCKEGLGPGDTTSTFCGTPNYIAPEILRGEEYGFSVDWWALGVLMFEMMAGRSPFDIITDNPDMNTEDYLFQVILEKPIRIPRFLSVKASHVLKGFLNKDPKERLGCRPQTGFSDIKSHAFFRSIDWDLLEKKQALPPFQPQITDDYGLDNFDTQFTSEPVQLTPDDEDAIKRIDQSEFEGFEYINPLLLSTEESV
# various kinases [2] = target: T2, various kinases (Homo sapiens, UniProt Q96PF2); conditions: kinase STK22B (TSSK2); ZLYTE
# T2 sequence (Q96PF2 1-358): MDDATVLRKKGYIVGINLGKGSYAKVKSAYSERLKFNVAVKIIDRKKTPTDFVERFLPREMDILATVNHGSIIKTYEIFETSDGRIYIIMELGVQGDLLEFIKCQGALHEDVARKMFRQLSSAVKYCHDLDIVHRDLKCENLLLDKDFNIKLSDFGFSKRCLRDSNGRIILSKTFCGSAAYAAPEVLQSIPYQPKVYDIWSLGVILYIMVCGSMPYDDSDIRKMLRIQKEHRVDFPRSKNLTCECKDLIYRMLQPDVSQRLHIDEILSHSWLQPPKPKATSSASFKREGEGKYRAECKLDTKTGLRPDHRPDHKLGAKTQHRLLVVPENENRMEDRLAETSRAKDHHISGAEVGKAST
# various kinases [3] = target: various kinases (Homo sapiens, UniProt Q13164); conditions: MAPK7 (ERK5)
# various kinases (Homo sapiens, UniProt Q13164), sequence (Q13164 whole entry): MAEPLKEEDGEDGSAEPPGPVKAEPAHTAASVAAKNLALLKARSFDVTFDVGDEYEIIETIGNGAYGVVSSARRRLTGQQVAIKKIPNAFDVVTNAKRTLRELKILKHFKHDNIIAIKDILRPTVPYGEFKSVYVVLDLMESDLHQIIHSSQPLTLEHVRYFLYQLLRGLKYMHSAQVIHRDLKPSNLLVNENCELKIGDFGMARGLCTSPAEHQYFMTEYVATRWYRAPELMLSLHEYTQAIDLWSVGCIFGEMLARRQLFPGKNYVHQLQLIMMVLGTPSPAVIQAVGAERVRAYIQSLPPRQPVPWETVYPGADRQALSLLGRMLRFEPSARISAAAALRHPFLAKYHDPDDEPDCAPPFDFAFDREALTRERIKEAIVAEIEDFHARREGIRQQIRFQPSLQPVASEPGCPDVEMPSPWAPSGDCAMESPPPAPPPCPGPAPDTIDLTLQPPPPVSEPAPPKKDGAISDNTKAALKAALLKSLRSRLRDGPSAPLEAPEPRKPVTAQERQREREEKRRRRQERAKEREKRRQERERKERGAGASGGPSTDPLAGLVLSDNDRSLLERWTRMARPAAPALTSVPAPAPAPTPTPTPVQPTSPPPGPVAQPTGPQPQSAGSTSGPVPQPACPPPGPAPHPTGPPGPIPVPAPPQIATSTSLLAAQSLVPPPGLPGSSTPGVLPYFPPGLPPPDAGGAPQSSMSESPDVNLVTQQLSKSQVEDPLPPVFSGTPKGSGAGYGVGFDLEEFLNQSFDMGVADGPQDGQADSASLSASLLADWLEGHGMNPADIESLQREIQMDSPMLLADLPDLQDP
# various kinases [4] = target: various kinases (Homo sapiens, UniProt P07949, V804L); conditions: kinase RET V804L; ZLYTE
# various kinases (Homo sapiens, UniProt P07949, V804L), sequence (P07949 29-1114 V804L): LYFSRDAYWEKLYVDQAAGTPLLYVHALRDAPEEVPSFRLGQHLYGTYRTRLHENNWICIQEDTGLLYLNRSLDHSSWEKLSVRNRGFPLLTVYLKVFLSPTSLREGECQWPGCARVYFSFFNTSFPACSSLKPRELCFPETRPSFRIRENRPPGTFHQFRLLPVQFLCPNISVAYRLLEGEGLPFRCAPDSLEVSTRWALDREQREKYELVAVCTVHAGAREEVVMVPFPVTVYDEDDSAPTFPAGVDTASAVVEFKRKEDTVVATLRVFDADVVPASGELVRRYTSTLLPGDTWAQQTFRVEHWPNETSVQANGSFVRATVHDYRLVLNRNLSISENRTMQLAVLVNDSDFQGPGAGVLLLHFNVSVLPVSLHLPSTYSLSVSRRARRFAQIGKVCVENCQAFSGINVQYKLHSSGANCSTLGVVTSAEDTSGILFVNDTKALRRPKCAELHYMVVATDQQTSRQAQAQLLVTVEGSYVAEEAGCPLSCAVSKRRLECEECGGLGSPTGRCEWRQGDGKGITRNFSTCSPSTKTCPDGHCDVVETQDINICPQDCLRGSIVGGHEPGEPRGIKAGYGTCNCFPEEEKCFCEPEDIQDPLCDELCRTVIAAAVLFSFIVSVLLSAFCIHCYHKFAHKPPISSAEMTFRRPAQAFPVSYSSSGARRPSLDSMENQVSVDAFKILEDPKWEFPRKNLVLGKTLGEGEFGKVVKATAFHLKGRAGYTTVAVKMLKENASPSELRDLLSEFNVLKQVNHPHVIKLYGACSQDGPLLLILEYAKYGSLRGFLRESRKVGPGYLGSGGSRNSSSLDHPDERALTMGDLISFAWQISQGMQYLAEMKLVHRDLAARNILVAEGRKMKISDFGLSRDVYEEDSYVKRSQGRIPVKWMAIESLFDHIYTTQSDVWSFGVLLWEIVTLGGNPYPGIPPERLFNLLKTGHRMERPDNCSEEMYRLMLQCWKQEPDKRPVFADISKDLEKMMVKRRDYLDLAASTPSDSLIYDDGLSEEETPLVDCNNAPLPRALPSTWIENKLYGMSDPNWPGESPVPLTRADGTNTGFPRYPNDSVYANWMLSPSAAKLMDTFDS
# various kinases [5] = target: various kinases (Homo sapiens, UniProt Q8N752); conditions: CSNK1A1L
# various kinases (Homo sapiens, UniProt Q8N752), sequence (Q8N752 whole entry): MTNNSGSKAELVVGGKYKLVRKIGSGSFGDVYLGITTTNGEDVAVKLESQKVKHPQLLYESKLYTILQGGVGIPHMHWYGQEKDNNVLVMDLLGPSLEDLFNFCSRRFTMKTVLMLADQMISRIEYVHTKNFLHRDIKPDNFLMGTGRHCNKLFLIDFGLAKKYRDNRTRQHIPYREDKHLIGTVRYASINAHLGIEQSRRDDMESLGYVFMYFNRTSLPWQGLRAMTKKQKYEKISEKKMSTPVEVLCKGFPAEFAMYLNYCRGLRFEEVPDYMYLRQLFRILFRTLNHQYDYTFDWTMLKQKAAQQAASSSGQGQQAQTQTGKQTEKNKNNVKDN
# various kinases [6] = target: various kinases (Homo sapiens, UniProt P16591); conditions: FER
# various kinases (Homo sapiens, UniProt P16591), sequence (P16591 whole entry): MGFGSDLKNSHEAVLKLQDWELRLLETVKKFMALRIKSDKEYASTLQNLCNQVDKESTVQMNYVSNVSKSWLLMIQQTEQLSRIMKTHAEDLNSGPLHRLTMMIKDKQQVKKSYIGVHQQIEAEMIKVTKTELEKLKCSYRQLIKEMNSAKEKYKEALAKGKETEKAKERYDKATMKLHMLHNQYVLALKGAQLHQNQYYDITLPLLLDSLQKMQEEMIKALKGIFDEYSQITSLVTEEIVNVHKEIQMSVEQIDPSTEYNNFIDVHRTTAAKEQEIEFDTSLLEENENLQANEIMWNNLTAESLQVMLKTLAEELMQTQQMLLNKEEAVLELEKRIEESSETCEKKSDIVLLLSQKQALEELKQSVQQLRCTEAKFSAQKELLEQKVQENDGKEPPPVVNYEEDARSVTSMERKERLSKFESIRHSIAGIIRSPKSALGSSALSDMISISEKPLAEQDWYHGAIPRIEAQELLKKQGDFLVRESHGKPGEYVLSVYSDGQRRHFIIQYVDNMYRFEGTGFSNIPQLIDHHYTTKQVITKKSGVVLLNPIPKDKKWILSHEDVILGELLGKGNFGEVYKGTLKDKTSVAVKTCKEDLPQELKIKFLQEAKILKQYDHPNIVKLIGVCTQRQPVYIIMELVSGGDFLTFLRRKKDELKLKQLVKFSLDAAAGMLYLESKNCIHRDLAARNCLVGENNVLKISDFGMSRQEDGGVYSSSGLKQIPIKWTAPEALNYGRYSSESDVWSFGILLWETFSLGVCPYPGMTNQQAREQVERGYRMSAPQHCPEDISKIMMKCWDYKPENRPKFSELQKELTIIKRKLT
# various kinases [7] = target: T3, various kinases (Homo sapiens, UniProt P43403); conditions: kinase ZAP70; ZLYTE
# T3 sequence (P43403 1-619): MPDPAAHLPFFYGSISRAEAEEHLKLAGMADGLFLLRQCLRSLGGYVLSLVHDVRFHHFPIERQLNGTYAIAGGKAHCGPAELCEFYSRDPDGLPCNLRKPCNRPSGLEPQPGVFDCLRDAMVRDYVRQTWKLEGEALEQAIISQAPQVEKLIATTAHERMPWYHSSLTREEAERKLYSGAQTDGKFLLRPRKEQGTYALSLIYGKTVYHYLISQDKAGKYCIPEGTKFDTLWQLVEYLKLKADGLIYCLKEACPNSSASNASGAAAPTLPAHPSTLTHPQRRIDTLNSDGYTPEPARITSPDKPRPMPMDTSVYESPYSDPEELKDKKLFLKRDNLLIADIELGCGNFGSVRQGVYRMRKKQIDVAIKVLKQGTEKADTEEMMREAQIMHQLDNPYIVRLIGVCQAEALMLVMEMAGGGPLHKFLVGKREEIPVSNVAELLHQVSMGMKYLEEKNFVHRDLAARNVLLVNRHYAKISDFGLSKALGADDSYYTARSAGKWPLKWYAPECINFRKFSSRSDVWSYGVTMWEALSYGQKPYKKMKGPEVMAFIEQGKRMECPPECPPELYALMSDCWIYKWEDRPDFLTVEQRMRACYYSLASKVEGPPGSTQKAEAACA
# various kinases [8] = target: various kinases (Homo sapiens, UniProt Q96RG2); conditions: PASK
# various kinases [9] = target: various kinases (Homo sapiens, UniProt Q86Z02); conditions: HIPK1 (Myak)
# various kinases [10] = target: various kinases (Homo sapiens, UniProt Q9UQM7); conditions: CAMK2A (CaMKII alpha)
# various kinases [11] = target: various kinases (Homo sapiens, UniProt P43250); conditions: GRK6
# various kinases [12] = target: various kinases (Homo sapiens, UniProt Q9NQU5); conditions: PAK6
# various kinases [13] = target: various kinases (Homo sapiens, UniProt Q13554); conditions: CAMK2B (CaMKII beta)
# various kinases [14] = target: various kinases (Homo sapiens, UniProt Q96SB4); conditions: kinase SRPK1; ZLYTE
# various kinases (Homo sapiens, UniProt Q96SB4), sequence (Q96SB4 whole entry): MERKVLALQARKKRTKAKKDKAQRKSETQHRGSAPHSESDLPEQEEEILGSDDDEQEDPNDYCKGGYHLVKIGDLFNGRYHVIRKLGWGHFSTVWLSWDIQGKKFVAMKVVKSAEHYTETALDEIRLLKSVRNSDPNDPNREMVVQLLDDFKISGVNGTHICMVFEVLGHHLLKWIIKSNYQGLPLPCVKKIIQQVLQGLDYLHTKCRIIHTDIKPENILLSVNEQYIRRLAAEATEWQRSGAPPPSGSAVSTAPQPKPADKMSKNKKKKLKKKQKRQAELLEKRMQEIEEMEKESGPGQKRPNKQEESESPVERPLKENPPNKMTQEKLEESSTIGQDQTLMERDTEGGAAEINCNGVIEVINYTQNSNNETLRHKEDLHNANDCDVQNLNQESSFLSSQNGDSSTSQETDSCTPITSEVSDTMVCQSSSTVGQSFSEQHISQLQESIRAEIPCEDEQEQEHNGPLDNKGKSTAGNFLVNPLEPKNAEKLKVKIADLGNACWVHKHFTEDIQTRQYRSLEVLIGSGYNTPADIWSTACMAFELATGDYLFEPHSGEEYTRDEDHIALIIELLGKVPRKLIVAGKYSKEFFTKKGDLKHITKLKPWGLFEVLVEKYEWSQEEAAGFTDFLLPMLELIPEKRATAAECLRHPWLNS
# various kinases [15] = target: various kinases (Homo sapiens, UniProt P29317); conditions: EPHA2
# various kinases (Homo sapiens, UniProt P29317), sequence (P29317 24-976): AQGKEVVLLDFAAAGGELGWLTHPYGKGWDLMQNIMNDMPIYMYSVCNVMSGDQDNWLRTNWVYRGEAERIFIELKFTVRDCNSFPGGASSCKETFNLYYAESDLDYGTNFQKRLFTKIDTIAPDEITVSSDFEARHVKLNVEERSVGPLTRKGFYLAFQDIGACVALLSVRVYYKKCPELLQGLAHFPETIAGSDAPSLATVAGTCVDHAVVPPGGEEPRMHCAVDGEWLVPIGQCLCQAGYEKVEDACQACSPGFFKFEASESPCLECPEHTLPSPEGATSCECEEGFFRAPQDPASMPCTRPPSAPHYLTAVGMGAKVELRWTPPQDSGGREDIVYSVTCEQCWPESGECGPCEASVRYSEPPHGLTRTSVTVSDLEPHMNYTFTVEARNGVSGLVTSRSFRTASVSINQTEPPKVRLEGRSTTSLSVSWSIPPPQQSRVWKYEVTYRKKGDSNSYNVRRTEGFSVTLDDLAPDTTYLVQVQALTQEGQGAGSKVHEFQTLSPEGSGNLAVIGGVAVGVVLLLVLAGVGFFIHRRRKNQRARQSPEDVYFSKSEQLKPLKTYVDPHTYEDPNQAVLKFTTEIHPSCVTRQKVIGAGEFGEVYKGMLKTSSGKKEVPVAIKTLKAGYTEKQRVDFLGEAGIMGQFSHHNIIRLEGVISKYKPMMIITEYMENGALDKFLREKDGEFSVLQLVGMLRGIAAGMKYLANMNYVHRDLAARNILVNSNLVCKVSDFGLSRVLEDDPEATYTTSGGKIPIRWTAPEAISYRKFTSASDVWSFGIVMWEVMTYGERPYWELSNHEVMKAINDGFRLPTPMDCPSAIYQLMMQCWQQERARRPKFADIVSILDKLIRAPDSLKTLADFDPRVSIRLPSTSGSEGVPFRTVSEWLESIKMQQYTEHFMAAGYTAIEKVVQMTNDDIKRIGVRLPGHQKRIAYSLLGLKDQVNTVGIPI
structure (smiles),measurement,setting,value
COc1ccc2c(c1)[C@]1(C[C@H]1c1ccc3c(/C=C/c4ccc(CN5C[C@@H](C)O[C@@H](C)C5)cc4)n[nH]c3c1)C(=O)N2 [CFI-400945],% Inhibition Average,various kinases [1],-11%
same,% Inhibition Duplicate #1,various kinases [1],-22%
same,% Inhibition Duplicate #2,various kinases [1],0%
same,% Inhibition Average,various kinases [2],3%
same,% Inhibition Duplicate #1,various kinases [2],4%
same,% Inhibition Duplicate #2,various kinases [2],2%
same,% Inhibition,various kinases [3],-2% and 0%
same,% Inhibition Average,various kinases [4],17%
same,% Inhibition Duplicate #1,various kinases [4],14%
same,% Inhibition Duplicate #2,various kinases [4],19%
same,% Inhibition,various kinases [5],2% and 1%
same,% Inhibition,various kinases [6],7% and 11%
same,% Inhibition Average,various kinases [7],2%
same,% Inhibition Duplicate #1,various kinases [7],0%
same,% Inhibition Duplicate #2,various kinases [7],4%
same,% Inhibition,various kinases [8],7% and 2%
same,% Inhibition,various kinases [9],0%
same,% Inhibition,various kinases [10],-3% and -1%
same,% Inhibition,various kinases [11],5%
same,% Inhibition,various kinases [12],12% and 7%
same,% Inhibition,various kinases [13],13% and 14%
same,% Inhibition Average,various kinases [14],5%
same,% Inhibition Duplicate #1,various kinases [14],6%
same,% Inhibition Duplicate #2,various kinases [14],3%
same,% Inhibition,various kinases [15],14% and 12%
